Test results: US6340783B1, “Rodent models of human amyloidoses” (University of Washington, priority 1992, dated 2002)
Read-outs that look alike come from different tables or passages of the source.

Experiments:
[1] = biological target: T1, BAPP-695 (Homo sapiens, UniProt P05067); conditions: single binding site; cited from earlier work
T1 construct: host or cells: baculovirus-derived

[2] = biological target: T2, BAPP-751 (Homo sapiens, UniProt P05067); conditions: single binding site; cited from earlier work
T2 construct: host or cells: baculovirus-derived

[3] = biological target: T3, Beta-Amyloid Protein (1-28) (Homo sapiens, UniProt P05067); assay: Competitive inhibition of 125I-labeled HSPG binding to BAP (1-28) affinity column; conditions: for IC50: unlabeled competing ligand, BAP (1-28) affinity column, read-out: concentration at 50% inhibition of 125I-HSPG binding to BAP
T3 construct: residues 1-28 of BAP or residues 597-624 of BAPP; purchased Bachem Inc., Torrance, Calif; host or cells: synthetic peptide
Procedure: ^125I-labeled HSPGs in the presence of increasing concentrations of unlabeled GAGs, or large low density HSPG (from EHS sarcoma) were applied to an Affi-gel 10 column containing BAP (residues 1-28). After nonbound PGs were eluted from the column using TBS+0.1% TX-100, bound PGs were eluted with a step gradient using 15 ml of 1M MgCl2 in TBS+0.1% TX-100, followed by 15 ml of 4M MgCl2 in TBS+0.1% TX-100, and then 10 ml of 8M urea buffer containing 3M NaCl. […] Bars indicate standard error of the mean.
In order to test the specificity of HSPG binding to BAP (1-28), competitive inhibition experiments were also performed. 125-I labeled HSPGs (100,000-200,000 dpm) were mixed with (a) HSPG from EHS sarcoma (Mr approximately 700,000) (Kato et al., 1988) (gift of Dr. Koji Kimata, Aichi, Japan), (b) heparin from porcine intestinal mucosa (Mr˜11,000; Sigma, St. Louis, Mo.), (c) chondroitin-6-sulfate from shark cartilage (Mr˜59,000; Sigma, St. Louis, Mo.), or (d) […] dextran sulfate (Mr˜110,000; Pharmacia Fine Chemicals, Uppsala, Sweden). The samples were incubated on a rotator for 2 hours at room temperature and then applied to the BAP (1-28) column. Columns were run and eluted with step gradients (1 to 4 M MgCl2) as described above.
Purified iodinated HSPGs were combined with various concentrations of unlabeled competing ligands and applied to a BAP (1-28) affinity column (FIG. 10).

[4] = biological target: T4, BAPP-770 (Homo sapiens, UniProt P05067); conditions: single binding site; cited from earlier work
T4 construct: host or cells: baculovirus-derived

[5] = biological target: basic fibroblast growth factor (Homo sapiens, UniProt P09038); conditions: mediated by heparan sulfate GAG chains; cited from earlier work
[6] = tested on: β/A4 amyloid deposition in rat hippocampus; assay: Rat infusion model of β/A4 amyloid deposition in hippocampus; assay type: in vivo
Procedure: For infusion studies, all reagents were dissolved and stored at 4° C. the night prior to surgery. β/A4 (residues 1-40; Bachem California Inc., Torrance, Calif.; Lot #ZJ209) was initially dissolved at 10 mg/ml in 35% acetonitrile (stock solution), with the final diluted concentration of acetonitrile less than 3% in animals infused with β/A4 or its vehicle (see below). Perlecan (basement membrane derived HSPG) and heparan sulfate (HS) GAGs were isolated and purified from the mouse Engelbreth-Holm-Swarm (EHS) sarcoma as described (6), and dissolved in sterile saline at 5 mg/ml and 10 mg/ml, respectively. Male Sprague-Dawley rats (250-300 gms; 3 months old; Harlan Sprague Dawley) were implanted with Alzet 2002 minipumps delivering the following solutions directly into hippocampus at a flow rate of 0.5 μl per hour for one week (7); 1) β/A4 (7.5 μl stock) & HSPG (92.5 μl stock), 6 animals; 2) β/A4 (7.5 μl stock) & HS GAGs (92.5 μl stock), 4 animals; 3) β/A4 (7.5 μl stock) & saline (92.5 μl), 6 animals; 4) HSPG only (100 μl), 4 animals; 5) HS GAGs only (100 μl), 4 animals; 6) saline only (100 μl), 4 animals; and 7) 35% acetonitrile (β/A4 vehicle, 7.5 μl) & saline (92.5 μl), 2 animals. High concentrations of these reagents were chosen to maximize possible effects following infusion into brain. The approximate quantity of β/A4 peptide infused into brain by the end of 1 week in each animal having β/A4 (1-40) as part of the infusate was 75 μg, at least 5 times the amount previously reported in rat models employing single acute injections (8, 9). After one week of continuous infusion, rats were sacrificed by overdose with pentobarbital and perfused with 100 ml of saline followed by 150 ml of 4% paraformaldehyde buffered with phosphate (pH 7.4), postfixed for 24 hours and transferred to phosphate buffered saline for paraffin embedding. Once embedded, consecutive 6 μm serial sections were cut and placed on poly-D-lysine coated slides. Two additional animals in the β/A4 only and the β/A4 & HSPG groups were processed for electron microscopy as described (10).
Detection of infused macromolecules was monitored using two polyclonal antibodies against synthetic β/A4 (either against β/A4 1-28 or 1-40) (13), and two monoclonal antibodies recognizing either HS GAGs (HK-249) (14) or the core protein of perlecan (HK-102) (15). Additionally, two polyclonal antibodies recognizing the core protein of perlecan (17) assessed effects of infused macromolecules (16) on endogenous brain HSPGs. Detection of other AD-like markers included Alz-50 antibody immunostaining (18), and silver staining by the modified Bielschowsky method (19). Possible inflammation-associated amyloid protein involvement was monitored by AA amyloid protein immunostaining (20). The presence of other cell types such as astrocytes was detected by immunostaining with a polyclonal antibody to glial fibrillary acidic protein (GFAP) (1:10,000 dilution; Dako), whereas microglia/macrophage infiltration was detected using a rat monoclonal antibody known as ED1 (1:2500 dilution; Serotec). For all immunostaining, negative controls consisted of using Tris-buffered saline (TBS) instead of the primary antibody, and/or preabsorption experiments using the primary antibody in the presence of excess antigen. In order to quantify possible staining and/or immunostaining differences between the various infusion groups, slides were scored blindly by two independent investigators as described (21) (Table 1; see FIG. 35).
7. Rats were anesthetized with pentobarbital (50 mg/kg) and a 27 gauge steel cannula was stereotactically implanted into the hippocampus using bregma as reference point (AP −4.8; ML 3.5; DV 4), and secured to the skull by machine screws and dental acrylic. The cannula was connected via a 15 cm coil of vinyl tubing to a model 2002 osmotic minipump (Alzet Inc.) placed subcutaneously beneath the shoulder blades. […]

[7] = biological target: T5, BAP (residues 1-28) (Homo sapiens, UniProt P05067); assay: Affinity column chromatography of labeled proteoglycans on BAP (1-28) Affi-gel 10 column; assay type: binding; conditions: after heparitinase/heparinase digestion
T5 construct: residues 1-28 of BAP or residues 597-624 of BAPP; purchased Bachem Inc., Torrance, Calif; host or cells: synthetic peptide
Procedure: Approximately 500,000 dpm of ^35S-sulfate labeled PGs isolated from the culture media of ECs were applied to Affi-gel 10 affinity columns containing approximately 0.45 mg of 1) residues 1-28 of BAP, 2) residues 410-429, a region of BAPP present in the extracellular domain, or 3) bovine serum albumin. The labeled PGs were left on the column for 1 hour, after which non-bound radiolabelled PGs were eluted with 25 ml (50 0.5 ml fractions) of TBS+0.1% TX-100 and collected on a fraction collector. Bound PGs were then eluted from the column with 15 mls of 4M MgCl2 in TBS+0.1% TX-100.
0.5 mg or 1.0 mg of ligands consisting of 1) BAP (1-28) (Bachem Inc., Torrance, Calif.), 2) a peptide corresponding to residues 410-429 of the BAPP (gift of Dr. Dennis Selkoe, Boston, U.S.A.) or 3) bovine serum albumin (BSA fraction V, Boehringer, Mannheim Biochemical) were dissolved initially in 400 μl of double distilled water to which was added an equal volume of 0.2 M HEPES buffer (pH 7.5) containing 160 mM calcium chloride. The ligand solutions were added to 0.8-1.0 ml of Affi-gel 10 (Biorad, Richmond, Calif.) and coupling was allowed to proceed for 4 hours at 4° C., after which 1/10 volume of IM ethanolamine (pH 8.0) was added and incubation continued for an additional 1-2 hours to block remaining unreacted ester groups. Gel coupled ligand was then transferred to Biorad Econo-columns and washed with TBS in 0.1% Triton-X 100. To assess the amount of bound ligand, soluble (nonbound) protein remaining in the wash buffer was assayed. The affinity columns coupled approximately 90% of ligand initially applied (i.e. 0.45 mg or 0.90 mg).
^35S-sulfate labeled PGs isolated from the culture media (360,000 dpm) of ECs and SMCs were applied to Affi-gel 10 columns containing 1) BAP (residues 1-28), 2) BAPP (residues 410-429) or 3) Bovine serum albumin. The labeled PGs were allowed to interact with the affinity gel for 1 hour (preliminary experiments indicated maximum binding efficiency at 1 hour) and non-bound radiolabelled PGs were eluted with 25 ml of TBS+0.1% Triton X-100 (TBS-TX 100). Bound PGs were eluted with either a single-step gradient using 15 mls of 4M MgCl2 in TBS-TX 100 or a linear gradient of 0 to 4M MgCl2 in TBS-TX 100. In some experiments, columns were further eluted with 15 ml of 8M urea in 50 mM Tris-HCl (pH 7.5), with 0.5% Triton X-100 and 3M NaCl. The radioactivity per fraction was determined by scintillation counting. Most experiments were repeated a minimum of three times. Recoveries of applied radioactivity from the affinity columns ranged from 80-95%.

[8] = biological target: fibronectin (Homo sapiens, UniProt P02751); conditions: via the core protein; cited from earlier work
[9] = tested on: HSPGs in AA amyloidotic mouse spleen; assay: In situ binding of BAP (1-28) to AA amyloidotic tissue sections
Source text: Six micron sections of paraffin-embedded AA amyloidotic spleen and liver (gift of Dr. Robert Kisilevsky, Kingston, Canada) were used for the in situ binding studies. AA amyloid was induced in CBA/J female mice (6-8 weeks old) using amyloid enhancing factor and silver nitrate, as previously described (Axelrad et al., 1982; Snow and Kisilevsky, 1985).
Immunostaining of tissue sections was accomplished using the avidin-biotin-immunoperoxidase method, employing the appropriate biotin-labeled secondary antibodies, followed by incubation with avidin-conjugated horseradish peroxidase complex (Vector Labs, Burlingame, Calif.). Peroxidase activity was produced by treatment with 3,3-diaminobenzidine as previously described (Snow et al., 1988a). For immunocytochemical staining, the primary antibody was used initially through a series of dilutions to obtain the best specificity with the least background staining. Only results using the optimal dilutions of primary antibody are reported.
Paraffin sections of mouse AA amyloidotic liver or spleen (obtained 4 days after initial AEF+ silver nitrate induction) were treated overnight at 4° C. with a 0.3 mg/ml or 0.5 mg/ml solution of a peptide corresponding to the extracellular domain of BAP (residues 1-28 of BAP or residues 597-624 of BAPP) (Bachem Inc., Torrance, Calif.) in Tris-buffered saline (TBS). After 18 hours, non-bound BAP was removed by extensive washing in 4 changes of TBS. Bound-BAP was then detected by immunostaining tissue sections with either of two BAP polyclonal antibodies as described above. […] These treatments included: 1) 0.50 units/ml of chondroitin ABC lyase (Seikagaku Kogyo Co. Ltd., through ICN Biomedicals) in 0.1 M enriched Tris-acetate buffer (pH 8.0) at 37° C. for 6 hours (Saitoh et al., 1968), 2) a solution of 20% nitrous acid: 33% acetic acid (1:1, volume/volume) incubated at room temperature for 6 hours (Snow et al., 1987) and 3) 10 units/ml of heparinase I and heparitinase I (Sigma, St. Louis, Mo.) in 0.20 M Tris-HCl buffer (pH 7.0) with 20 mM calcium acetate added, at 37° C. for 6 hours. […]

fibronectin, sequence (P02751 32-2477, species assumed): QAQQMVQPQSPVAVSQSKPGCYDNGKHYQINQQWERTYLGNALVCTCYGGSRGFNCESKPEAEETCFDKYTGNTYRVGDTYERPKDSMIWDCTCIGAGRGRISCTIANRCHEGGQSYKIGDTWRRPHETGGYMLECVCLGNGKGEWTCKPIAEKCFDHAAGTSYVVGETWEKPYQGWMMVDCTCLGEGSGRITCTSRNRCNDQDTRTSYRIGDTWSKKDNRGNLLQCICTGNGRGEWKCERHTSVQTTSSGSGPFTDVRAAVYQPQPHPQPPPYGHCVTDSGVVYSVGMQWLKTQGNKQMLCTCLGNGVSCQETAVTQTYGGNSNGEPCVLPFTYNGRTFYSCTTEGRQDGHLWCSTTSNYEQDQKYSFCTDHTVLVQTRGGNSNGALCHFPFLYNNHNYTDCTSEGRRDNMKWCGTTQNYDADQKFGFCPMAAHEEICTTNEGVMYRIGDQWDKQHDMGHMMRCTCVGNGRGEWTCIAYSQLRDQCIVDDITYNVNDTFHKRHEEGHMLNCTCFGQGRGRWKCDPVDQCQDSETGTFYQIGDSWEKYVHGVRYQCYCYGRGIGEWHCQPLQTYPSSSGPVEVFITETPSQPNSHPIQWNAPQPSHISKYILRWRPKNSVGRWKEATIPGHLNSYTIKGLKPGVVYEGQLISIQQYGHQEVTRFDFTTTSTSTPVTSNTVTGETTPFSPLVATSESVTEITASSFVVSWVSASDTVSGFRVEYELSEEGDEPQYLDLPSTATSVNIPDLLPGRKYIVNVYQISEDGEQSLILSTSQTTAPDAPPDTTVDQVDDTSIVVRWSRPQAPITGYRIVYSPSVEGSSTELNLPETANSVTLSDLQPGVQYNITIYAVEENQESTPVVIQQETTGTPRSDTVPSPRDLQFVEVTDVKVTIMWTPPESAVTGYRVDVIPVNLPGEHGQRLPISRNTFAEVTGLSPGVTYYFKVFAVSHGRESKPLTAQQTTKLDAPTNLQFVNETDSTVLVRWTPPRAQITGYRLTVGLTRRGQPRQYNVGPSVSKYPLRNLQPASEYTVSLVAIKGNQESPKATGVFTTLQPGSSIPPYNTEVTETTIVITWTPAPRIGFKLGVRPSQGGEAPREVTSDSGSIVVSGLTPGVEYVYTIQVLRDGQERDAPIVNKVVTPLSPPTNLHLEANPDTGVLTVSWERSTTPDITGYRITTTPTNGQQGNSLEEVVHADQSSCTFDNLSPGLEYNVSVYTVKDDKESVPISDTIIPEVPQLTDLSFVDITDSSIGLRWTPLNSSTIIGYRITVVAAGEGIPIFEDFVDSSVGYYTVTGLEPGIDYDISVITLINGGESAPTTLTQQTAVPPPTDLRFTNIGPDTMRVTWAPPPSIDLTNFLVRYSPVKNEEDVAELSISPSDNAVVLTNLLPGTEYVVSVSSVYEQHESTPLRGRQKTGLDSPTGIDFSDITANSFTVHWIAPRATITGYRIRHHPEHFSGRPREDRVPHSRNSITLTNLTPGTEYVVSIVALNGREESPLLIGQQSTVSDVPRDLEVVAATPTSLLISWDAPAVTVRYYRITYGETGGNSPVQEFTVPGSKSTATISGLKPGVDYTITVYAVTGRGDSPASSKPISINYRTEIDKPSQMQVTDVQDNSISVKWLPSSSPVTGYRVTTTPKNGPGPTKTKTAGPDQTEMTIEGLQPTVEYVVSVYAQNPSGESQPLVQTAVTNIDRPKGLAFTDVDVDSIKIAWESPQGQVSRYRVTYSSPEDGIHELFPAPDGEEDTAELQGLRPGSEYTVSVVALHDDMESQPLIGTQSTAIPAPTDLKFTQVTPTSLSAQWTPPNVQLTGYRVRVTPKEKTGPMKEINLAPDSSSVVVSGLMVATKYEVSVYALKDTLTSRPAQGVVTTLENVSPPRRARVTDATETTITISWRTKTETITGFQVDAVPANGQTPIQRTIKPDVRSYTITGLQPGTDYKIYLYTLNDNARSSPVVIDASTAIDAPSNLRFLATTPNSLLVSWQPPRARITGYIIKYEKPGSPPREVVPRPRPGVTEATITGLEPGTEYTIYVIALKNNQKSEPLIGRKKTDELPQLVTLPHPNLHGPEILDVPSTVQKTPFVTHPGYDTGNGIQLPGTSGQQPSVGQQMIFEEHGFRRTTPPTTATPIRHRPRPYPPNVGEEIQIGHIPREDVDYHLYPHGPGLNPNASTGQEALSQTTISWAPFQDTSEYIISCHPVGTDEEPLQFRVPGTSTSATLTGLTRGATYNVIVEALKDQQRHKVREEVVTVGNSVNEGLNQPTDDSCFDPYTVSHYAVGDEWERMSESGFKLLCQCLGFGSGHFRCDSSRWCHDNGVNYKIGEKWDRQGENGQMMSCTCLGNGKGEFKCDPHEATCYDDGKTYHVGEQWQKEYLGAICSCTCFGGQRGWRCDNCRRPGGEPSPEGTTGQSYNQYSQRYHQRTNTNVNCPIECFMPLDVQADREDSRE
basic fibroblast growth factor, sequence (P09038 143-288, species assumed): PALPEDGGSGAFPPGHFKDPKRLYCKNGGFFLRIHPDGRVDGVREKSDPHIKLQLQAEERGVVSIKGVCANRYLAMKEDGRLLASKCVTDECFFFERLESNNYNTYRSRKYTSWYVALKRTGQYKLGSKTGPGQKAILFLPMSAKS

## EHS basement-membrane HSPG: basement membrane derived heparan sulfate proteoglycan (perlecan) from mouse Engelbreth-Holm-Swarm sarcoma, Mr approximately 700,000
[1]
  Kd: 0.9 nM
[2]
  Kd: 10 nM
[3]; listed as EHS HSPG
  inhibition of binding of 125I-labeled HSPGs to the BAP (in words): more effective competitor
[3]; listed as isolated basement membrane HSPG
  inhibition of binding of 125I-labeled HSPGs to the BAP (in words): strongly inhibited
[3]
  IC50: < 1000 nM
[4]
  Kd: 9 nM
[5]
  Kd: 30000 nM
[6]; 1 week infusion
  Alz-50 immunostaining adjacent to infusion site: Lack

## chondroitin-6-sulfate [reference compound]
[3]
  inhibition of binding of 125I-labeled HSPGs to the BAP (in words): not
[3]; at all concentrations except 100 uM
  competition for binding of 125I-labeled HSPG to BAP: unable to compete

## heparin [reference compound]
[3]
  IC50: 10000 nM

## heparitinase-digested ^125I-labeled HSPGs: 125I-labeled HSPG digested with a heparitinase/heparinase mixture (core protein)
[7]
  HSPGs still able to bind to the BAP column in comparison to undigested controls: 61%

## high Mr HSPG of human lung fibroblasts: high Mr HSPG of human lung fibroblasts (Heremans et al. 1990)
[8]
  Kd: 2 nM

## synthetic BAP (residues 1-28): peptide corresponding to the extracellular domain of BAP (residues 1-28 of BAP or 597-624 of BAPP), Bachem
[9]; sections pretreated overnight at 4° C. with peptide
  BAP immunoreactivity at sites of HSPG accumulation after peptide pretreatment: strong positive immunoreactivity
[9]; sections pretreated with acetic acid or chondroitin ABC lyase
  change in BAP immunostaining: little to no decrease
[9]; sections pretreated with nitrous acid or heparitinase/heparinase
  change in BAP immunoreactivity: some loss

## β/A4 (1-40): synthetic β/A4 residues 1-40; Bachem California Inc.
[6]; 1-week infusion groups
  HSPG core protein immunostaining score versus groups where HSPG was part of the infusate: not significantly different
  scoring of congo red staining: significant increase
  scoring of thioflavin S fluorescence: significant increase
[6]; 1 week continuous infusion into hippocampus
  animals demonstrating deposition of congophilic amyloid material in brain: 4 of 6
[6]; 1 week, HSPG not part of the infusate
  animals with (endogenous) HSPG immunostaining: four
